# Laboratory results taken from ChEMBL document CHEMBL1201862, “PubChem BioAssay data set” (2004).
#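 96-well plates; 48 h exposure; 5 concentrations. Endpoints by linear interpolation between flanking doses. Not reached: highest tested concentration assigned. At the GI50, growth is halved.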 Calls of active or inactive are those of the source. No stated cut-off is given here; in the data, active = GI50 up to about 1.1 µM and inactive = higher.
# Legend:
# Test in all cases: NCI anticancer screen, dose series, 48 h
# 786-0 = system: 786-0
# A498 = system: A498
# A549 = system: A549
# ACHN = system: ACHN
# BT-549 = system: BT-549
# CAKI-1 = system: CAKI-1
# CCRF-CEM = system: CCRF-CEM
# COLO 205 = system: COLO 205
# DU-145 = system: DU-145
# EKVX = system: EKVX
# HCC 2998 = system: HCC 2998
# HCT-116 = system: HCT-116
# HCT-15 = system: HCT-15
# HL-60 = system: HL-60
# HOP-62 = system: HOP-62
# HOP-92 = system: HOP-92
# HT-29 = system: HT-29
# Hs-578T = system: Hs-578T
# IGROV-1 = system: IGROV-1
# K562 = system: K562
# KM12 = system: KM12
# LOX IMVI = system: LOX IMVI
# M14 = system: M14
# MCF7 = system: MCF7
# MDA-MB-231 = system: MDA-MB-231
# MDA-MB-435 = system: MDA-MB-435
# MDA-N = system: MDA-N
# Malme-3M = system: Malme-3M
# NCI-H226 = system: NCI-H226
# NCI-H23 = system: NCI-H23
# NCI-H460 = system: NCI-H460
# NCI-H522 = system: NCI-H522
# NCI/ADR-RES = system: NCI/ADR-RES
# OVCAR-3 = system: OVCAR-3
# OVCAR-4 = system: OVCAR-4
# OVCAR-5 = system: OVCAR-5
# OVCAR-8 = system: OVCAR-8
# PC-3 = system: PC-3
# RPMI-8226 = system: RPMI-8226
# SF-268 = system: SF-268
# SF-295 = system: SF-295
# SF-539 = system: SF-539
# SK-MEL-28 = system: SK-MEL-28
# SK-MEL-2 = system: SK-MEL-2
# SK-MEL-5 = system: SK-MEL-5
# SK-OV-3 = system: SK-OV-3
# SN12C = system: SN12C
# SNB-19 = system: SNB-19
# SNB-75 = system: SNB-75
# SR = system: SR
# SW-620 = system: SW-620
# T47D = system: T47D
# TK-10 = system: TK-10
# U-251 = system: U-251
# UACC-257 = system: UACC-257
# UACC-62 = system: UACC-62
# UO-31 = system: UO-31
# MOLT-4 = system: MOLT-4
# RXF 393 = system: RXF 393
smiles,measurement,setting,value
Cc1oc2c(Cl)cc(O)c(Cl)c2c2cccc1-2,GI50,786-0,21.9 µM (inactive)
same,GI50,A498,42 µM (inactive)
same,GI50,A549,28.2 µM (inactive)
same,GI50,ACHN,40.6 µM (inactive)
same,GI50,BT-549,23.6 µM (inactive)
same,GI50,CAKI-1,30.1 µM (inactive)
same,GI50,CCRF-CEM,14.1 µM (inactive)
same,GI50,COLO 205,30.4 µM (inactive)
same,GI50,DU-145,8.85 µM (inactive)
same,GI50,EKVX,18.7 µM (inactive)
same,GI50,HCC 2998,> 100 µM (inactive)
same,GI50,HCT-116,16.6 µM (inactive)
same,GI50,HCT-15,21.5 µM
same,GI50,HL-60,25.8 µM (inactive)
same,GI50,HOP-62,24.2 µM (inactive)
same,GI50,HOP-92,14.9 µM (inactive)
same,GI50,HT-29,35.2 µM (inactive)
same,GI50,Hs-578T,34.8 µM (inactive)
same,GI50,IGROV-1,23.1 µM (inactive)
same,GI50,K562,12.6 µM (inactive)
same,GI50,KM12,17.7 µM (inactive)
same,GI50,LOX IMVI,16.9 µM (inactive)
same,GI50,M14,28.6 µM (inactive)
same,GI50,MCF7,9.73 µM (inactive)
same,GI50,MDA-MB-231,33.6 µM (inactive)
same,GI50,MDA-MB-435,20.1 µM (inactive)
same,GI50,MDA-N,18.5 µM (inactive)
same,GI50,Malme-3M,25.7 µM (inactive)
same,GI50,NCI-H226,14.2 µM (inactive)
same,GI50,NCI-H23,19.5 µM (inactive)
same,GI50,NCI-H460,> 100 µM (inactive)
same,GI50,NCI-H522,26.4 µM (inactive)
same,GI50,NCI/ADR-RES,28.8 µM (inactive)
same,GI50,OVCAR-3,18.1 µM (inactive)
same,GI50,OVCAR-4,12 µM (inactive)
same,GI50,OVCAR-5,45.5 µM (inactive)
same,GI50,OVCAR-8,23.6 µM (inactive)
same,GI50,PC-3,31.3 µM (inactive)
same,GI50,RPMI-8226,10.4 µM (inactive)
same,GI50,SF-268,34.9 µM (inactive)
same,GI50,SF-295,31.6 µM (inactive)
same,GI50,SF-539,20.1 µM (inactive)
same,GI50,SK-MEL-28,14.8 µM (inactive)
same,GI50,SK-MEL-2,33.3 µM (inactive)
same,GI50,SK-MEL-5,19.4 µM (inactive)
same,GI50,SK-OV-3,> 100 µM (inactive)
same,GI50,SN12C,25.9 µM (inactive)
same,GI50,SNB-19,42.8 µM (inactive)
same,GI50,SNB-75,2.83 µM (inactive)
same,GI50,SR,12.5 µM (inactive)
same,GI50,SW-620,32.5 µM (inactive)
same,GI50,T47D,1.96 µM (inactive)
same,GI50,TK-10,> 100 µM (inactive)
same,GI50,U-251,18.9 µM (inactive)
same,GI50,UACC-257,> 100 µM (inactive)
same,GI50,UACC-62,28.6 µM (inactive)
same,GI50,UO-31,36.4 µM (inactive)
CC(=N/NC(=S)N1CCCCC1)/C(=N\NC(=S)N1CCCCC1)c1ccccc1,GI50,786-0,1.99 µM (inactive)
same,GI50,A498,1.3 µM (inactive)
same,GI50,A549,2.03 µM (inactive)
same,GI50,ACHN,1.6 µM (inactive)
same,GI50,BT-549,1.91 µM (inactive)
same,GI50,CAKI-1,2.04 µM (inactive)
same,GI50,COLO 205,2.22 µM (inactive)
same,GI50,DU-145,0.512 µM (active)
same,GI50,EKVX,1.89 µM (inactive)
same,GI50,HCC 2998,2.3 µM (inactive)
same,GI50,HCT-116,2.53 µM (inactive)
same,GI50,HCT-15,2.1 µM
same,GI50,HOP-62,2.04 µM (inactive)
same,GI50,HOP-92,1.9 µM (inactive)
same,GI50,HT-29,2.1 µM (inactive)
same,GI50,Hs-578T,1.84 µM (inactive)
same,GI50,IGROV-1,1.72 µM (inactive)
same,GI50,K562,4.74 µM (inactive)
same,GI50,KM12,1.97 µM (inactive)
same,GI50,LOX IMVI,3.43 µM (inactive)
same,GI50,M14,1.99 µM (inactive)
same,GI50,MCF7,2.75 µM (inactive)
same,GI50,MDA-MB-231,2.7 µM (inactive)
same,GI50,MDA-MB-435,2.08 µM (inactive)
same,GI50,MDA-N,2.61 µM (inactive)
same,GI50,MOLT-4,6.19 µM (inactive)
same,GI50,Malme-3M,2.13 µM (inactive)
same,GI50,NCI-H226,1.91 µM (inactive)
same,GI50,NCI-H23,2.2 µM (inactive)
same,GI50,NCI-H460,1.91 µM (inactive)
same,GI50,NCI-H522,2.23 µM (inactive)
same,GI50,NCI/ADR-RES,2.65 µM (inactive)
same,GI50,OVCAR-3,1.65 µM (inactive)
same,GI50,OVCAR-4,1.85 µM (inactive)
same,GI50,OVCAR-5,2 µM (inactive)
same,GI50,OVCAR-8,2.64 µM (inactive)
same,GI50,PC-3,1.64 µM (inactive)
same,GI50,RPMI-8226,3.36 µM (inactive)
same,GI50,RXF 393,1.35 µM (inactive)
same,GI50,SF-268,1.79 µM (inactive)
same,GI50,SF-295,1.87 µM (inactive)
same,GI50,SF-539,2.67 µM (inactive)
same,GI50,SK-MEL-28,2.09 µM (inactive)
same,GI50,SK-MEL-2,2.11 µM (inactive)
same,GI50,SK-MEL-5,1.96 µM (inactive)
same,GI50,SK-OV-3,1.95 µM (inactive)
same,GI50,SN12C,1.82 µM (inactive)
same,GI50,SNB-19,1.87 µM (inactive)
same,GI50,SNB-75,1.91 µM (inactive)
same,GI50,SW-620,2.15 µM (inactive)
same,GI50,T47D,2.12 µM (inactive)
same,GI50,TK-10,1.74 µM (inactive)
same,GI50,U-251,1.68 µM (inactive)
same,GI50,UACC-257,1.95 µM (inactive)
same,GI50,UACC-62,1.77 µM (inactive)
same,GI50,UO-31,1.76 µM (inactive)
